Results reported in patent US20230242496A1, “SOX11 INHIBITORS FOR TREATING MANTLE CELL LYMPHOMA” (Icahn School of Medicine At Mount Sinai, priority 2020, published 2023).

Assays:
[1] = test system: Jeko-1 (SOX11+); test: Cell viability assay (CellTiter-Blue resazurin reduction); format: cell-based; conditions: JeKo-1 cells; for IC50: 0-40 μM; for viability at 20 µM: 20 μM compound, normalized to 0.2% DMSO
Description: Cell viability was determined by a fluorometric resazurin reduction method (CellTiter-Blue; Promega, Madison, Wis.) following the manufacturer's instructions. […] Cells were incubated for 72 hours. After incubation, 20 μl CellTiter-Blue Cell was added to each well and incubated for another 2 hours. […] The number of viable cells in each treated well was calculated, based on the linear least squares regression of the standard curve (OD vs. cell concentration). The viability of cells treated with compounds was normalized to the viability of cells treated with 0.2% Dimethyl sulfoxide (DMSO). Cell counts were confirmed with Trypan Blue Exclusion Assay on the Countess automated cell counter (Invitrogen) according to the manufacturer's specifications. The average and mean standard deviation were calculated from three separate experiments. IC50 values were calculated using the GraphPad Prism (version 4.00) based on a sigmoidal dose-response equation.

[2] = molecular target: T1, (His)6-SOX11-DBD protein (Homo sapiens, UniProt P35716); test: Surface Plasmon Resonance (SPR) assay; format: binding; conditions: immobilized recombinant (His)6-SOX11-DBD, 25° C., compounds 5-40 μM, mean of three experiments
T1 construct: Recombinant (His)6-SOX11-DBD protein was immobilized
T1 sequence (P35716 49-117 limits assumed): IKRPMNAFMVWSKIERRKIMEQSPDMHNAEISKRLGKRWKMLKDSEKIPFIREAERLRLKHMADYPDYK
Description: Surface Plasmon Resonance (SPR) Assay
Recombinant (His)6-SOX11-DBD protein was immobilized at a flow rate of 10 μl/min for 180 seconds to the right channel of a gold-coated SCR NiHC200M sensor chip (XanTec bioanalytics) placed in a Reichert 2SPR instrument (Reichert Technologies). The left channel, without immobilized protein, was used as a reference. […] Compounds flowed sequentially from the left to the right channel over the prepared sensor chip surface. 120 seconds association phase with each compound concentration was followed by 300 seconds dissociation phase with the assay buffer alone. The ka, kd, and KD values were determined from the sensograms for at least 3 concentrations of each compound by curve fitting the data using Reichert's TraceDrawer software. The mean KD value for each compound was calculated from three separate experiments.

Row | Structure (SMILES) | IC50 ([1]; Homo sapiens, JeKo-1, 72 h) | viability at 20 µM ([1]; Homo sapiens, JeKo-1, 72 h) | Kd [2] | viability at 20 µM ([1]; Homo sapiens, 72 hours) | IC50 ([1]; Homo sapiens, 72 hours) | IC50 ([1]; 72 hours)
1 | O=C(Nc1ccc(S(=O)(=O)Nc2ccccc2)cc1)c1ccc2cccnc2c1 | > 20 µM | 94.2% | 2.01 µM |  |  | 
2 | O=C(Nc1ccc(S(=O)(=O)Nc2ccccc2)cc1)c1ccc2ncccc2c1 | < 20 µM | 26% | 70 µM |  |  | 
3 | O=C(Nc1ccc(S(=O)(=O)Nc2ccccc2)cc1)c1ccc2cnccc2c1 | 15 µM | 6.45% | 134 µM |  |  | 
4 | O=C(Nc1ccc(S(=O)(=O)Nc2ccccc2)cc1)c1ccc2cncnc2c1 | > 20 µM | 100% | 226 µM |  |  | 
5 | O=C(Nc1ccc(S(=O)(=O)Nc2ccccc2)cc1)c1ccc2cn[nH]c2c1 | 10 µM | 17.2% | 48.4 µM |  |  | 
6 | Cc1nc2cc(C(=O)Nc3ccc(S(=O)(=O)Nc4ccccc4)cc3)ccc2s1 | 12 µM | 16.6% | 21.2 µM |  |  | 
7 | O=C(Nc1ccc(S(=O)(=O)Nc2ccccc2)cc1)c1ccc2nc[nH]c2c1 | > 20 µM | 93.6% | 230 µM |  |  | 
8 | CC1Sc2ccc(C(=O)Nc3ccc(S(=O)(=O)N4CCOCC4)cc3)cc2NC1=O (stereo not shown) | 11 µM | 18.9% | 137 µM |  |  | 
9 | CC1Sc2ccc(C(=O)Nc3ccc(S(=O)(=O)Nc4cccc(C(F)(F)F)c4)cc3)cc2NC1=O (stereo not shown) | 21 µM | 9.74% | 5.78 µM |  |  | 
10 | Cc1cccc(NS(=O)(=O)c2cccc(NC(=O)c3ccc4c(c3)NC(=O)C(C)S4)c2)c1 (stereo not shown) | 10 µM | 3.73% | 2.47 µM |  |  | 
11 | CC1Sc2ccc(C(=O)Nc3cccc(S(=O)(=O)Nc4ccccc4F)c3)cc2NC1=O (stereo not shown) | 13 µM | 22.7% | 28.7 µM |  |  | 
12 | CC1Sc2ccc(C(=O)Nc3cccc(S(=O)(=O)Nc4ccccc4C(F)(F)F)c3)cc2NC1=O (stereo not shown) | > 20 µM | 73.6% | 91.7 µM |  |  | 
13 | CC1Sc2ccc(C(=O)Nc3cccc(S(=O)(=O)Nc4cccc(Cl)c4)c3)cc2NC1=O (stereo not shown) | < 20 µM | 28.8% | 3.15 µM |  |  | 
14 | CC1Sc2ccc(C(=O)Nc3cccc(S(=O)(=O)Nc4ccc(N)cc4)c3)cc2NC1=O (stereo not shown) | > 20 µM | 59.7% | 59.7 µM |  |  | 
15 | CC1Sc2ccc(C(=O)Nc3cccc(S(=O)(=O)Nc4ccc(NC(=O)OC(C)(C)C)cc4)c3)cc2NC1=O (stereo not shown) | > 20 µM | 67.4% | 5.07 µM |  |  | 
16 | CC1Sc2ccc(C(=O)Nc3cccc(S(=O)(=O)Nc4ccncc4)c3)cc2NC1=O (stereo not shown) | > 20 µM | 95.8% | 21.2 µM |  |  | 
17 | CC1Sc2ccc(C(=O)Nc3cccc(S(=O)(=O)NC4CCN(C(=O)OC(C)(C)C)CC4)c3)cc2NC1=O (stereo not shown) | 15 µM | 13% | 142 µM |  |  | 
18 | CC1Sc2ccc(C(=O)Nc3cccc(S(=O)(=O)N4CCN(C(=O)OC(C)(C)C)CC4)c3)cc2NC1=O (stereo not shown) | 18 µM | 36.4% | 1.76 µM |  |  | 
19 | CC1Sc2ccc(C(=O)Nc3cccc(S(=O)(=O)NC4CCNCC4)c3)cc2NC1=O (stereo not shown) | > 20 µM | 96.6% | 54.6 µM |  |  | 
20 | CC1Sc2ccc(C(=O)Nc3cccc(S(=O)(=O)N4CCNCC4)c3)cc2NC1=O (stereo not shown) | > 20 µM | 114% | 131 µM |  |  | 

Row | Structure (SMILES) | IC50 ([1]; Homo sapiens, JeKo-1, 72 h) | viability at 20 µM ([1]; Homo sapiens, JeKo-1, 72 h) | Kd [2] | viability at 20 µM ([1]; Homo sapiens, 72 hours) | IC50 ([1]; Homo sapiens, 72 hours) | IC50 ([1]; 72 hours)
21 | O=C(Nc1cccc(S(=O)(=O)N2CCCC2)c1)c1ccc2c(c1)CCCS2 |  | 27.1% | 1.98 µM |  |  | 
22 | O=C(Nc1cccc(S(=O)(=O)N2CCCCC2)c1)c1ccc2c(c1)CCCS2 |  | 54.2% | 3.01 µM |  |  | 
23 | Cc1ccc(NC(=O)c2ccc3c(c2)N(C)C(=O)CS3)cc1S(=O)(=O)N1CCCC1 |  | 90.9% | 35.9 µM |  |  | 
24 | Cc1ccc(NC(=O)c2ccc3c(c2)N(C)C(=O)CS3)cc1S(=O)(=O)N1CCCCC1 |  | 3.42% | 8.89 µM |  |  | 
25 | O=C(Nc1ccc(S(=O)(=O)N2CCCCC2)c(Cl)c1)c1ccc2c(c1)CCCS2 |  | 35.1% | 17.6 µM |  |  | 
26 | CN1C(=O)CSc2ccc(C(=O)Nc3ccc(S(=O)(=O)N4CCCC4)c(Cl)c3)cc21 |  | 16% | 27.4 µM |  |  | 
27 | CN1C(=O)CSc2ccc(C(=O)Nc3ccc(S(=O)(=O)N4CCCCC4)c(Cl)c3)cc21 |  | 4.13% | 2.75 µM |  |  | 
28 | O=C(Nc1ccc(CNc2ccccc2)cc1)c1ccc2c(c1)CCCS2 |  | 51.9% | 13.5 µM |  |  | 
29 | O=C(Nc1cccc(CNc2ccccc2)c1)c1ccc2c(c1)CCCS2 |  | 85.3% | 7.34 µM |  |  | 
30 | O=C(Nc1ccc(S(=O)(=O)N2CCCC2)c(Cl)c1)c1ccc2c(c1)CCCS2 |  | 1.26% | 3.86 µM |  |  | 
31 | CC1Sc2ccc(C(=O)Nc3ccc(S(=O)(=O)N4CCCC4)c(Cl)c3)cc2N(C)C1=O (stereo not shown) |  | 8.44% | 20.4 µM |  |  | 
32 | CC1Sc2ccc(C(=O)Nc3cccc(S(=O)(=O)N4CCCC4)c3)cc2N(C)C1=O (stereo not shown) |  | 13.9% | 346 µM |  |  | 
33 | Cc1ccccc1COc1cccc(NC(=O)c2ccc3c(c2)NC(=O)C(C)S3)c1 (stereo not shown) |  | 110% | 5.41 µM |  |  | 
34 | CC1Sc2ccc(C(=O)Nc3cccc(OCc4ccccc4)c3)cc2NC1=O (stereo not shown) |  | 107% | 13.7 µM |  |  | 
35 | CC1Sc2ccc(C(=O)Nc3ccc(S(=O)(=O)N4CCCC4)c(Cl)c3)cc2NC1=O (stereo not shown) |  | 8.93% | 13.8 µM |  |  | 
36 | CC1Sc2ccc(C(=O)Nc3ccc(Cl)c(S(=O)(=O)N(C)C(C)C)c3)cc2NC1=O (stereo not shown) |  | 12% | 13.4 µM |  |  | 
37 | Cc1ccccc1COc1ccc(NC(=O)c2ccc3c(c2)NC(=O)C(C)S3)cc1 (stereo not shown) |  | 99.2% | 7.91 µM |  |  | 
38 | CC1Sc2ccc(C(=O)Nc3ccc(Cl)c(S(=O)(=O)N4CCCC4)c3)cc2NC1=O (stereo not shown) |  | 1.39% | 23.9 µM |  |  | 
39 | c1ccc(COc2ccc(CNc3ccc4cnccc4c3)cc2)cc1 |  | 1.2% | 33.7 µM |  |  | 
40 | c1ccc(COc2cccc(CNc3ccc4cncnc4c3)c2)cc1 |  | 1.4% | 24.2 µM |  |  | 

Row | Structure (SMILES) | IC50 ([1]; Homo sapiens, JeKo-1, 72 h) | viability at 20 µM ([1]; Homo sapiens, JeKo-1, 72 h) | Kd [2] | viability at 20 µM ([1]; Homo sapiens, 72 hours) | IC50 ([1]; Homo sapiens, 72 hours) | IC50 ([1]; 72 hours)
41 | c1ccc(COc2ccc(CNc3ccc4cncnc4c3)cc2)cc1 |  | 1.09% | 5.2 µM |  |  | 
42 | c1ccc(COc2cccc(CNc3ccc4cnccc4c3)c2)cc1 |  | 1.12% | 47.8 µM |  |  | 
43 | CC1Sc2ccc(C(=O)Nc3ccc(CN4CCCCC4)cc3)cc2NC1=O (stereo not shown) |  | 108% | 3.43 µM |  |  | 
44 | CC1Sc2ccc(C(=O)Nc3ccc(CN4CCCC4)cc3)cc2NC1=O (stereo not shown) |  | 104% | 71.5 µM |  |  | 
45 | CC1Sc2ccc(C(=O)Nc3ccc(CN(C)C(C)C)cc3)cc2NC1=O (stereo not shown) |  | 105% | 1.17 µM |  |  | 
46 | CC1Sc2ccc(C(=O)Nc3ccc(CN(C)c4ccccc4)cc3)cc2NC1=O (stereo not shown) |  | 84.9% | 3.62 µM |  |  | 
47 | CC1Sc2ccc(C(=O)Nc3ccc(CNc4ccccc4)cc3)cc2NC1=O (stereo not shown) |  | 108% | 0.258 µM |  |  | 
48 | Cc1cccc(NCc2ccc(NC(=O)c3ccc4c(c3)NC(=O)C(C)S4)cc2)c1 (stereo not shown) |  | 79% | 8.16 µM |  |  | 
49 | C[C@@H]1Sc2ccc(C(=O)Nc3ccc(S(=O)(=O)Nc4ccccc4)cc3)cc2NC1=O | 12.5 µM | 12.8% | 31.9 µM |  |  | 
50 | CC1Sc2ccc(C(=O)Nc3cccc(CNc4ccc(OS(=O)(=O)F)cc4)c3)cc2NC1=O (stereo not shown) |  |  | 3.53 µM | 4.81% | 10 µM | 
51 | O=C(CCc1c[nH]cn1)Nc1cccc(C(=O)Nc2ccc(S(=O)(=O)Nc3ccccc3)cc2)c1 | > 20 µM | 90.7% | 6.46 µM |  |  | 
52 | CC1Sc2ccc(C(=O)Nc3cccc(CNc4cccc(S(=O)(=O)F)c4)c3)cc2NC1=O (stereo not shown) |  |  | 1.9 µM | 44.3% | 19 µM | 
53 | CC1Sc2ccc(C(=O)Nc3ccc(CNc4cccc(S(=O)(=O)F)c4)cc3)cc2NC1=O (stereo not shown) |  |  | 1.65 µM |  |  | 16 µM
54 | Nc1ccccc1CC(=O)Nc1cccc(C(=O)Nc2ccc(S(=O)(=O)Nc3ccccc3)cc2)c1 | 11 µM | 9.92% | 0.805 µM |  |  | 
55 | O=C(Nc1cccc(OCc2ccccc2)c1)c1ccc2snnc2c1 | > 20 µM | 98.1% | 9.61 µM |  |  | 
56 | O=C(Nc1ccc(OCc2ccccc2)cc1)c1ccc2snnc2c1 | > 20 µM | 93.6% | 1.65 µM |  |  | 
57 | CN(c1ccccc1)S(=O)(=O)c1cccc(NC(=O)c2ccc3snnc3c2)c1 | 10 µM | 10.6% | 8.33 µM |  |  | 
58 | CCN(c1ccccc1)S(=O)(=O)c1cccc(NC(=O)c2ccc3snnc3c2)c1 | 8.5 µM | 4.86% | 2.65 µM |  |  | 
59 | CCCN1C(=O)CSc2ccc(C(=O)Nc3ccc(S(=O)(=O)N4CCCCC4)cc3)cc21 | 17 µM | 39.9% | 5.87 µM |  |  | 
